Results from patent publication US20210236512A1 (ZARODEX THERAPEUTICS LIMITED, priority 2018, published 2021).
Where “and” joins values, the source holds several entries; their conditions need not be identical. Identical values can stand only once. Entries after “also recorded” stand apart in the source; their conditions may differ. Like-named read-outs stand apart in the source and are kept apart here.

Experiments:
[1] = tested on: Immunoglobulins (IgG, IgA, IgM); test: Immunological assessment of referred patients taking clozapine: serum immunoglobulins; format: in vivo, human; conditions: for Serum IgG after clozapine stopped: 24 months after discontinuation; for Serum IgG at discontinuation of clozapine: starting value before recovery
[2] = tested on: circulating B cell subsets; test: Second observational study (interim analysis): circulating B cell subsets by FACS; format: in vivo, human
[3] = tested on: class switched memory B cells (CSMB), plasmablasts and other B cell subsets; conditions: for CSMB after clozapine stopped: one patient, after 24 months
[4] = tested on: B cell subsets in spleen and inguinal lymph nodes; test: Mouse CIA model: B cell subsets in spleen and lymph nodes by FACS; format: in vivo, DBA/1 mice
[5] = mouse, in vivo
[6] = tested on: Immunoglobulin levels (IgG, IgA and IgM); test: First observational study: serum immunoglobulin levels by nephelometry, clozapine-treated vs clozapine-naive patients; format: in vivo, human
[7] = one line per patient of Table 3
[8] = sub-group A: all diagnoses, all smoking, secondary causes not excluded, n=123
[9] = sub-group A: all diagnoses, all smoking, secondary causes not excluded, n=123, listed as clozapine
[10] = sub-group B: possible secondary causes excluded, n=94

With `CN1CCN(C2=Nc3cc(Cl)ccc3Nc3ccccc32)CC1` [Clozapine, clozapine] the “Serum IgA and IgM following cessation of clozapine” value ([1]; FIG. 5 / one patient over 24 months) was “without clear improvement; also recorded: remained low”, the “Serum IgA, individual referred patient” value [1, 7] was “IgA 0.54 g/L; also recorded: IgA < 0.22 g/L; also recorded: IgA 0.49 g/L; also recorded: IgA 0.38 g/L; also recorded: undetectable; also recorded: IgA 0.26 g/L; also recorded: IgA 0.81 g/L; also recorded: IgA 0.63 g/L” and the “Serum IgM, individual referred patient” value [1, 7] was “IgM 0.3 g/L; also recorded: IgM < 0.17 g/L; also recorded: IgM 0.41 g/L; also recorded: IgM 0.23 g/L; also recorded: IgM 0.07 g/L; also recorded: IgM 0.18 g/L”. For the same molecule, the “Serum IgG, individual referred patient” value ([1]; one line per patient of Table 3 (clozapine dose and duration differ)) was “IgG 4.8 g/L; also recorded: IgG < 1.34 g/L; also recorded: IgG 5.24 g/L; also recorded: IgG 2.68 g/L; also recorded: IgG 2.98 g/L; also recorded: IgG 1.2 g/L; also recorded: IgG 3.3 g/L; also recorded: IgG 2.38 g/L; also recorded: IgG 4.24 g/L; also recorded: IgG 6.65 g/L; also recorded: IgG 5.61 g/L; also recorded: IgG 4.79 g/L”, the “Serum IgG after clozapine stopped” value ([1]; one patient) was “IgG rose to 5.95 from g/L” and the “Serum IgG after clozapine stopped” value ([1]; one patient, listed as clozapine) was 5.95 g/L. The “Serum IgA after clozapine stopped” value ([1]; one patient, after 24 months) was 0.29, the “Serum IgM after clozapine stopped” value ([1]; one patient, after 24 months) was 0.49 after 24 months and the “Serum IgG after clozapine stopped, intermediate value” ([1]; one patient, within the 24 months after discontinuation) was 4.8 g/L. The “Serum IgG post-discontinuation of clozapine” value ([1]; over three years (FIG. 5)) was 5.95 g/L, the “Mean serum IgA” value ([1]; referred patients on clozapine) was 0.34 g/L and the “Mean serum IgG” value ([1]; referred patients on clozapine) was 3.6 g/L. The “Mean serum IgM” value ([1]; referred patients on clozapine) was 0.21 g/L, the “Serum IgG at discontinuation of clozapine” value [1] was 3.3 g/L and the “Serum IgG at discontinuation of clozapine” value ([1]; listed as clozapine) was 3.5 g/L and 3.3 g/L. The “Overall CD19+ B cell numbers vs control” value ([2]; FIG. 8A-B) was “not significantly different”, the “Naive (CD19+ CD27-) B cells as a proportion of total CD19+ B cells” value ([2]; FIG. 9A-C) was “Small increase” and the “Overall memory B cell pool or IgMhi IgDlo memory B cell subpopulation” value ([2]; FIG. 10A-C, 12A-C) was “without perturbation”. For the same molecule, the “Circulating levels of transitional B cells or marginal zone B cells” value ([2]; FIG. 13A-C, 14A-C) was “No significant difference”, the “Class-switched memory B cells (CD27+ IgM- IgD- as % B)” value ([2]; P=0.06 vs control, FIG. 11A-C) was “Strong trends to a specific reduction” and the Levels of plasmablasts ([2]; P=0.07 vs control clozapine naive, FIG. 15A-C) was “Strong trends to reduction”. The “Marginal zone B cell numbers vs healthy control” value ([3]; FIG. 3B) was “no significant difference”, the “Total B cell numbers vs CVID and healthy controls” value ([3]; FIG. 3B) was “similar” and the “CSMB (reference range 6.5-29.1%), individual referred patient” value ([3]; class switched memory B cells as % of total CD19+ cells, one line per patient of Table 3, listed as clozapine) was 1.58%. The “Overall lymphopenia or B cell lymphopenia” value ([3]; human, in vivo) was “no severe overall lymphopenia or B cell lymphopenia”, the “CSMB after clozapine stopped” value [3] was “CSM Brose to 2.77%” and the “CSMB after clozapine stopped” value ([3]; listed as clozapine) was 2.77%. For the same molecule, the “Mean CSMB (reference range 6.5-29.1%)” value ([3]; referred clozapine-treated patients, p<0.0001 vs healthy controls) was 1.87%, the “Proportion of B220+ B cells in spleen” value ([4]; 10 mg/kg from day 1) was “significantly reduced” and the “Proportion of plasma cells in spleen” value ([4]; 10 mg/kg given on day 1) was “significant reduction”. The “Level of GL7 expression on follicular B cells in lymph node” value ([4]; all clozapine treatment groups vs vehicle, dose- and time-dependent) was “significantly decreased”, the “Percentage of B220+ B cells in lymph nodes” value ([4]; all doses and time points (5 or 10 mg/kg from day 1 or day 15)) was “significantly lower” and the “Lymph node follicular B cells (B220+IgD-Fas+GL7hi)” value ([4]; all doses/both time points) was “Strikingly significant reductions”. The “Plasma cell numbers in lymph node” value ([4]; all doses/times) was “no significant effect”, the “Plasma cells as a proportion of live cells in spleen compared to control” value ([4]; every other dose/time evaluated) was “nominally lower values” and the Effects on thermoregulation [5] was “effects on thermoregulation were also evident”. For the same molecule, the Sedative effects ([5]; ip, 5 mg/kg) was “Clear dose-related sedative effects”, the “Concentrations / distribution of serum IgG, IgA and IgM vs clozapine-naive control group” value ([6]; FIG. 1A-D) was “significantly reduced; also recorded: leftward shift (reduction)” and the “Effect of duration of clozapine therapy on serum IgG levels” value ([6]; p 0.014, not observed in clozapine-naive patients) was “associated with lower serum IgG levels; also recorded: progressively reduced IgG levels”. For the same molecule, the “Serum IgA <0.5 g/L, percentage of patients” value [6, 8] was 1.6%, the “Serum IgA <0.6 g/L, percentage of patients” value [6, 8] was 2.4% and the “Serum IgA <0.7 g/L, percentage of patients” value [6, 8] was 6.5%. For the same molecule, the “Serum IgA <0.8 g/L (below reference range 0.8-4.0 g/L), percentage of patients” value (“Serum IgA <0.8 g/L … percentage of patients” below) [6, 8] was 13.1% and 13.0%, the “Serum IgG <3 g/L, percentage of patients” value [6, 8] was 0.8% and the “Serum IgG <4 g/L, percentage of patients” value [6, 8] was 1.6%. The “Serum IgG <5 g/L, percentage of patients” value [6, 8] was 3.3%, the “Serum IgG <6 g/L (below reference range 6-16 g/L), percentage of patients” value [6, 8] was 9.8% and the “Serum IgM <0.2 g/L, percentage of patients” value [6, 8] was 8.1%. The “Serum IgM <0.3 g/L, percentage of patients” value [6, 8] was 16.3%, the “Serum IgM <0.4 g/L, percentage of patients” value [6, 8] was 29.3% and the “Serum IgM <0.5 g/L (below reference range 0.5-1.9 g/L), percentage of patients” value [6, 8] was 38.2%. For the same molecule, the “Serum IgA <0.8 g/L … percentage of patients” value [6, 9] was 13.0%, the “Serum IgG <6 g/L (below reference range 6-16 g/L), percentage of patients” value [6, 9] was 9.8% and the “Serum IgM <0.5 g/L (below reference range 0.5-1.9 g/L), percentage of patients” value [6, 9] was 38.2%. For the same molecule, the “Serum IgA <0.5 g/L, percentage of patients” value [6, 10] was 2.1%, the “Serum IgA <0.6 g/L, percentage of patients” value [6, 10] was 2.1% and the “Serum IgA <0.7 g/L, percentage of patients” value [6, 10] was 6.4%. For the same molecule, the “Serum IgA <0.8 g/L … percentage of patients” value [6, 10] was 13.8%.
